What is called EC50 is the midpoint of the concentration-response curve. By CC50 is commonly meant the concentration giving 50% cytotoxicity. Read a low CC50 as harm at low concentration. Usually IC50 stands for the concentration needed to halve the response being measured.

Several values for one entry are separate records, joined by “and”; a condition that tells them apart may be missing. Equal entries are not always repeated.

We go through one substance from PMC8619593 (Pharmaceuticals, 2021).

For data set [1], the system named is SARS-CoV-2. In words: microbe, parasite or virus in culture. To be noted: Vero E6 cells, MOI 0.04, three days, XTT; read-out: SARS-CoV-2 CPE, EC50. It is filed as cell-based. In general terms: Tetrazolium assays rely on reduction of a dye to a coloured formazan, in cell work by metabolically active cells.
For data set [2], the system named is SARS-CoV-2. The experiment in a line: microbe, parasite or virus in culture. Particulars: Vero E6 cells, MOI 0.04, three days, dilutions from 100 µM; read-out: SARS-CoV-2 IFA, EC50. The data set is classed as cell-based.
The target in data set [3] is T1, Human recombinant cathepsin B (exopeptidase activity) (Homo sapiens, UniProt P07858).
T1 construct: The Preparation of Catalytically Active Human Cathepsin B from Its Precursor Expressed in Escherichia coli; made in house; host or cells: Escherichia coli
In words: Cathepsin B exopeptidase inhibition assay. The data set is classed as biochemical. To be noted: at 50 μM.

Data set [4] concerns the target Human recombinant cathepsin L (Homo sapiens, UniProt P07711). The experiment in a line: Cathepsin L inhibition assay. It is filed as biochemical. To be noted: at 50 μM.
Another data set has as its target 3CLPro (Severe acute respiratory syndrome coronavirus 2, UniProt P0DTD1). The experiment in a line: 3CLPro FRET-based inhibition assay. It is filed as biochemical, SARS-CoV-2. Particulars: at 200 μM.
For a further data set, the system named is Vero E6 cells. To be noted: dilutions from 100 µM.
The next data set relates to SARS-CoV-1. To be noted: read-out: IC50 for blocking SARS-CoV-1 entry; cited from earlier work.
Data set [5] concerns SARS-CoV-2. Particulars: read-out: IC50 for blocking SARS-CoV-2 entry; cited from earlier work.
Data set [6] relates to Bacillus subtilis ATCC 6633. The experiment in a line: Broth microdilution MIC. Particulars: ATCC6633, 24 h. (Dilution methods test growth across graded concentrations, often in twofold steps.)
For data set [7], the system named is Staphylococcus aureus MSSA ATCC 29213. The experiment in a line: Broth microdilution MIC. Particulars: Staphylococcus aureus MSSA ATCC 29213, 24 h.
For data set [8], the system named is Staphylococcus aureus MRSA ATCC 33591. In words: Broth microdilution MIC. Particulars: Staphylococcus aureus MRSA ATCC 33591, 24 h.
Data set [9] relates to Staphylococcus epidermidis ATCC 35984 biofilm. In words: Broth microdilution MIC. To be noted: Staphylococcus epidermidis ATCC 35984 biofilm, 24 h.
Data set [10] concerns Staphylococcus epidermidis mecA. The experiment in a line: Broth microdilution MIC. Particulars: Staphylococcus epidermidis mecA, 24 h.
For data set [11], the system named is Enterococcus faecalis ATCC 29212. In words: Broth microdilution MIC. To be noted: ATCC29212, 24 h.
Data set [12] has as its system Enterococcus faecalis 15376 VanA. In words: Broth microdilution MIC. Particulars: Enterococcus faecalis 15376 VanA, 24 h.
Data set [13] has as its system Enterococcus faecalis ATCC 51299 VanB. In words: Broth microdilution MIC. To be noted: Enterococcus faecalis ATCC 51299 VanB, 24 h.
In data set [14] the test system is SARS-CoV-2. In words: Viral RNA reduction assay (ddPCR) in Vero E6 cells, MOI 0.01. To be noted: read-out: SARS-CoV-2 RNA Reduction EC50; Vero E6 cells, MOI 0.01, 48 h, ddPCR of supernatant.

Chain of Human recombinant cathepsin L (P07711 114-333): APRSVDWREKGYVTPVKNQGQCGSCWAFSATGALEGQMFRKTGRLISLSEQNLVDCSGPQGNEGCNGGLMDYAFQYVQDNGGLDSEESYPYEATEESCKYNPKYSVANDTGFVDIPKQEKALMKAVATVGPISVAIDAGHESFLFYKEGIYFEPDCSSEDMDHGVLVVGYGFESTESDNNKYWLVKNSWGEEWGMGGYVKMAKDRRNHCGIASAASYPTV

In the case of “teicoplanin [Compound 3, reference compound]”, the EC50 is 15.7 µM and 16 µM in the data set on SARS-CoV-2 [1]; 18 ± 5.4 µM in the data set on SARS-CoV-2 [2]; 5.6 ± 1.3 µM in the data set on SARS-CoV-2 [14]. For the same substance, the “Exopeptidase Cathepsin B relative inhibition” value in data set [3] is on record as 0.45% at 50 μM. For the same substance, the results for the “Cathepsin L relative inhibition” value in [4] and in data set [4] (listed as teicoplanin) were 5.07% at 50 μM and 5%, respectively. Moreover, the 3CLPro inhibition on 3CLPro came to 13% at 200 μM. Also, in the data set on Vero E6 cells, the cytotoxic concentration (CC50) is > 100 µM. Moreover, the values for the IC50 in the data set with SARS-CoV-1 and in the data set on SARS-CoV-2 [5] were 3.76 µM and 1.66 µM, respectively. The MIC in [6] turned out to be 0.5 µg/mL; in data set [7], 0.5 µg/mL; in data set [8], 0.5 µg/mL; in data set [9] it was 2 µg/mL; in data set [10], 16 µg/mL; in [11], 2 µg/mL. The MIC in [12] was found to be 256 µg/mL; in data set [13], 4 µg/mL.
